Reference: ChEMBL document CHEMBL4622885, “Rational design, synthesis and biological evaluation of novel multitargeting anti-AD iron chelators with potent MAO-B inhibitory and antioxidant activity” (Bioorg Med Chem, 2020)

How the values were obtained:
Mus musculus [1] = assay: (§1) Antialzheimer activity in scopolamine-induced impairment in ICR mouse assessed as total entries at 15 mg/kg, ip administered once a day for 10 days pretreated with scopolamine for 30 mins and measured at 5th day of training session by Morris water maze test (reference value: 2.19 +/- 0.16); type: functional
Mus musculus [2] = assay: as §1, with “distance to platform” for “entries”, “6.56” for “2.19”, “1.27 m)” for “0.16)”; type: functional
PC-12 [3] = assay: Neuroprotective activity against amyloid beta (1 to 42 residues) induced cytotoxicity in rat PC12 cells assessed as cell viability at 10 uM incubated for 24 hrs by MTT assay (reference value: 100%); type: functional; conditions: PC-12, 24 h, read-out: Activity
Mus musculus [4] = assay: Antialzheimer activity in scopolamine-induced impairment in ICR mouse assessed as latency time at 15 mg/kg, ip administered once a day for 10 days pretreated with scopolamine for 30 mins and measured at 5th day of training session by Morris water maze test (reference value: 29.4 +/- 5.77 sec); type: functional
PC-12 [5] = assay: Neuroprotective activity in amyloid beta (1 to 42 residues) (unknown origin)-induced ROS production in rat PC12 cells assessed as intracellular ROS level at 10 uM pretreated for 36 hrs followed by incubation with DCFH-DA for 10 mins by flow cytometry analysis (reference value: 30.7%); type: functional
[6] = target: T1, Amine oxidase [flavin-containing] B (Homo sapiens, UniProt P27338); assay: Inhibition of human recombinant MAO-B expressed in baculovirus infected BTI insect cells using kynuramine as substrate at 100 nM incubated for 10 mins followed by substrate addition by fluorimetric analysis relative to control
T1 sequence (P27338 whole entry): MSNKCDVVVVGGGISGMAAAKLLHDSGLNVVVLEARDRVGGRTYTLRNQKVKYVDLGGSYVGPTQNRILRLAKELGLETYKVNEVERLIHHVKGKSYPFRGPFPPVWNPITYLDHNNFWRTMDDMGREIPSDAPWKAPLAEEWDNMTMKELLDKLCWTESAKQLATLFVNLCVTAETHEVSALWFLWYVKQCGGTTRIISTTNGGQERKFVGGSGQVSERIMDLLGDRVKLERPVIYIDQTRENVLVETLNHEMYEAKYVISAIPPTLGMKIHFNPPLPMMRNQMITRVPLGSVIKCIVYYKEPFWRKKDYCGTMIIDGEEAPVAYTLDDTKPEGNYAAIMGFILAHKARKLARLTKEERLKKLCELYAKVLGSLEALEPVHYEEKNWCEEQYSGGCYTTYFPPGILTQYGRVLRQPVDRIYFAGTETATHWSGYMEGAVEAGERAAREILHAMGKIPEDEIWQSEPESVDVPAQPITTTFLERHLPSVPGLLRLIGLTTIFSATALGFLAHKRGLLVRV

[7] = Metal chelating activity assessed as iron chelation
[8] = Metal chelating activity assessed as Fe3+ complex formation by measuring stability constant for Fe(I)3 in using pre Fe+3 complexed compound (FeCl3) in 0.1 M KCl :DMSO solution UV-pH titration based spectrophotometric analysis
[9] = Dissociation constant, pKa1 of compound for protonation of the 4-oxo group in 0.1 M KCl incubated for 1 min by UV-pH titration based spectrophotometric analysis; type: physicochemical
[10] = target: T1, Amine oxidase [flavin-containing] B; assay: Inhibition of human recombinant MAO-B expressed in baculovirus infected BTI insect cells using kynuramine as substrate incubated for 10 mins followed by substrate addition by fluorimetric analysis
[11] = Metal chelating activity assessed as Fe3+ complex formation by measuring stability constant for FeI in using pre Fe+3 complexed compound (FeCl3) in 0.1 M KCl :DMSO solution UV-pH titration based spectrophotometric analysis
[12] = Metal chelating activity assessed as Fe3+ complex formation by measuring stability constant for Fe(I)2 in using pre Fe+3 complexed compound (FeCl3) in 0.1 M KCl :DMSO solution UV-pH titration based spectrophotometric analysis
[13] = Dissociation constant, pKa2 of compound for dissociation of the 3-hydroxyl group in 0.1 M KCl incubated for 1 min by UV-pH titration based spectrophotometric analysis; type: physicochemical
[14] = Cytotoxicity against rat PC12 cells assessed as cell viability at 25 uM incubated for 24 hrs by MTT assay relative to control; type: cell-based, PC-12; conditions: read-out: Activity
[15] = Cytotoxicity against rat PC12 cells assessed as cell viability at 12.5 uM incubated for 24 hrs by MTT assay relative to control; type: cell-based, PC-12; conditions: read-out: Activity
[16] = Cytotoxicity against rat PC12 cells assessed as cell viability at 50 uM incubated for 24 hrs by MTT assay relative to control; type: cell-based, PC-12; conditions: read-out: Activity
[17] = Cytotoxicity against rat PC12 cells assessed as cell viability at 3.13 uM incubated for 24 hrs by MTT assay relative to control; type: cell-based, PC-12; conditions: read-out: Activity
[18] = Cytotoxicity against rat PC12 cells assessed as cell viability at 6.25 uM incubated for 24 hrs by MTT assay relative to control; type: cell-based, PC-12; conditions: read-out: Activity

SMILES	inhibition at 0.1 µM [6] [%]	pFe3+ [7]	log(activity) [8]	pKa at 1 min [9]	IC50 [10] [nM]	log(activity) [11]	log(activity) [12]	pKa at 1 min [13]	Activity (Mus musculus [1])	Activity (Mus musculus [2]) [m]	viability at 10 µM (PC-12 [3]) [%]	Time (Mus musculus [4]) [s]	Activity (PC-12 [5]) [%]	viability at 24 h, 25 µM [14] [%]	viability at 24 h, 12.5 µM [15] [%]	viability at 24 h, 50 µM [16] [%]	viability at 24 h, 3.13 µM [17] [%]	viability at 24 h, 6.25 µM [18] [%]
CC12CC3CC(C)(C1)CC(N)(C3)C2 [MEMANTINE]	–	–	–	–	–	–	–	–	5.19	3.52	55.2	13.42	30.51	–	–	–	–	–
Nc1c2c(nc3ccccc13)CCCC2 [TACRINE]	–	–	–	–	–	–	–	–	4.63	4.28	–	18.03	–	–	–	–	–	–
Cc1ccc2cc(C(=O)NCCn3ccc(=O)c(O)c3C)c(=O)oc2c1	44.3	17.8	34.3	3.32	163	14.2	25.4	9.75	–	–	–	–	–	–	–	–	–	–
C#CCN(C)Cc1ccccc1 [PARGYLINE]	53	–	–	–	–	–	–	–	3.81	4.37	–	20.85	–	–	–	–	–	–
COc1ccc2cc(C(=O)NCCn3ccc(=O)c(O)c3C)c(=O)oc2c1	65.5	18.9	35.3	3.27	87.9	14.9	26.2	9.7	4.63	3.87	88.2	14.94	8.2	90.4	98	61.7	98.7	99.9

More lines, main results first:

inhibition at 0.1 µM [6] [%]	pFe3+ [7]	log(activity) [8]	pKa at 1 min [9]	IC50 [10] [nM]	log(activity) [11]	log(activity) [12]	pKa at 1 min [13]	SMILES	Activity (Mus musculus [1])	Activity (Mus musculus [2]) [m]	viability at 10 µM (PC-12 [3]) [%]	Time (Mus musculus [4]) [s]	Activity (PC-12 [5]) [%]	viability at 24 h, 25 µM [14] [%]	viability at 24 h, 12.5 µM [15] [%]	viability at 24 h, 50 µM [16] [%]	viability at 24 h, 3.13 µM [17] [%]	viability at 24 h, 6.25 µM [18] [%]
49.1	17.2	33.6	3.2	115	14.1	24.9	9.74	Cc1c(O)c(=O)ccn1CCNC(=O)c1cc2ccc(OCc3cc(F)ccc3F)cc2oc1=O	–	–	–	–	–	–	–	–	–	–
45.9	18.1	34.6	3.31	135	14.6	26	9.75	CCCOc1ccc2cc(C(=O)NCCn3ccc(=O)c(O)c3C)c(=O)oc2c1	–	–	–	–	–	–	–	–	–	–
45.7	19	35.6	3.18	117	14.6	25.6	9.79	Cc1c(O)c(=O)ccn1CCNC(=O)c1cc2ccc(OCc3ccc(C(C)C)cc3)cc2oc1=O	–	–	–	–	–	–	–	–	–	–
